For data set [1], the system named is IL-6 level in LPS-induced A549 cells. The experiment in a line: IL-6 level in LPS-induced A549 cells (ELISA). In kind it is cell-based, human. To be noted: 0.5 μg/mL LPS, 4.94-400 μM, 48 hours, vs LPS alone, p<0.05. Here is the method:
In this example, A549 cells (human alveolar basal epithelial cells) were used to assess the effect of the present NIM-HA conjugate (CA102N) on the IL-6 level.
A549 cells in 600 μL F-12K medium were seeded in a density of 5×10^4 per 24-well and incubated overnight. The next day, the medium was discarded and replaced with a fresh medium containing 1 μg/mL LPS with 0, 0.1, 0.2, 0.4 and 0.8 mg/mL CA102N (eq. 0, 5.9, 11.8, 23.6 and 47.2 μM) conjugate or 5 μg/mL (12.7 μM) dexamethasone, which was then incubated for 48 hours. Then, 300 μL of supernatants were collected, and the IL-6 level was measured using a Human IL-6 Uncoated ELISA kit (Catalogue No. 88-7066; Invitrogen). Cells not treated with LPS are used as the negative control, whereas cells treated with LPS but not CA102N are used as the positive control. The results were summarized in FIG. 3, and the data were expressed as mean±standard deviation (SD).
A549 cells in 600 μL F-12K medium were seeded in a density of 2×10^4 per 24-well and incubated overnight. […] Then, 300 μL of supernatants were collected, and the IL-6 level was measured using Human IL-6 Uncoated ELISA kit (Catalogue No. 88-7066; Invitrogen). […] The results were summarized in FIG. 4, and the data were expressed as mean±standard deviation (SD).

Data set [2] deals with IL-6, KC/GRO and MCP-1. The experiment in a line: Serum IL-6 and IL-6 downstream chemokines in CT26 tumor-bearing mice. Format: in vivo. To be noted: nimesulide alone 1.5 mg/kg and 5.3 mg/kg i.v.
Procedure: When the tumor volumes reached 25-50 mm^3, tumor-bearing mice were randomized to six groups: vehicle control, 50 mg/kg NIM-HA (eq. 1.3 mg/kg Nim) conjugate, 100 mg/kg (eq. 2.6 mg/kg Nim) NIM-HA conjugate, 200 mg/kg (eq. 5.2 mg/kg Nim) NIM-HA conjugate, 1.5 mg/kg nimesulide, and 5.3 mg/kg nimesulide. The vehicle or test samples were i.v. injected two times weekly for two weeks.
The serum level of IL-6 and two IL-6 downstream chemokines (KC/GRO and MCP-1) were measured following conventional protocols.
For data set [3] the following is noted: prior studies; cited from earlier work.
Data set [4] concerns SARS-CoV-2 pseudovirus. Kind of data set: In vivo SARS-CoV-2 pseudovirus infection, lung luminescence (IVIS). Set-up: species or system BALB/c mice. To be noted: vs positive control.
Data set [5] concerns SARS-CoV-2 pseudotyped lentivirus. Format: cell-based.

`CC(=O)NC1C(O)OC(CO)C(O)C1OC1OC(C(=O)Nc2ccc(NS(C)(=O)=O)c(Oc3ccccc3)c2)C(O)C(O)C1O` (stereo not drawn) [NIM-HA disaccharide conjugate]: the IL-6 level entry in data set [1] is on record as “substantially decrease the IL-6 level in LPS-treated cells in a dose-dependent manner”.
Consider `CS(=O)(=O)Nc1ccc([N+](=O)[O-])cc1Oc1ccccc1` [nimesulide, N-(4-nitro-2-phenoxyphenyl)methanesulfonamide], for which the IL-6 blockade result in data set [2] is listed as “cannot elicit any effect on IL-6 blockade”. In addition, the hepatotoxicity entry in data set [3] was “significantly associated with hepatotoxicity”. Also, the “SARS-CoV-2 pseudovirus infection (lung luminescence)” value in data set [4] (4 mg/kg nimesulide i.v. 1 hour before intra-tracheal pseudovirus, 24 hours, p<0.05) is listed as “inhibit significantly compared to the positive control”. Moreover, the “inhibition of SARS-CoV-2 pseudovirus entry (in words)” value in data set [5] is “cannot inhibit SARS-CoV-2 pseudovirus infection by blocking the viral entry”.
Consider hyaluronic acid [HA], for which the “SARS-CoV-2 pseudovirus infection (lung luminescence)” value in data set [4] (HA group (dose not given)) was “no significant difference between the HA group and the positive control”.
